{
  "source": "paper PMC4527713",
  "about": "“An IPTG Inducible Conditional Expression System for Mycobacteria” (PLoS ONE, 2015)",
  "molecular_target": "T1, RpoB (β subunit of RNA polymerase) (Mycolicibacterium smegmatis, UniProt P60281)",
  "T1 construct": "with RNA polymerase (multimeric enzyme)",
  "T1 sequence (P60281 1-1169)": "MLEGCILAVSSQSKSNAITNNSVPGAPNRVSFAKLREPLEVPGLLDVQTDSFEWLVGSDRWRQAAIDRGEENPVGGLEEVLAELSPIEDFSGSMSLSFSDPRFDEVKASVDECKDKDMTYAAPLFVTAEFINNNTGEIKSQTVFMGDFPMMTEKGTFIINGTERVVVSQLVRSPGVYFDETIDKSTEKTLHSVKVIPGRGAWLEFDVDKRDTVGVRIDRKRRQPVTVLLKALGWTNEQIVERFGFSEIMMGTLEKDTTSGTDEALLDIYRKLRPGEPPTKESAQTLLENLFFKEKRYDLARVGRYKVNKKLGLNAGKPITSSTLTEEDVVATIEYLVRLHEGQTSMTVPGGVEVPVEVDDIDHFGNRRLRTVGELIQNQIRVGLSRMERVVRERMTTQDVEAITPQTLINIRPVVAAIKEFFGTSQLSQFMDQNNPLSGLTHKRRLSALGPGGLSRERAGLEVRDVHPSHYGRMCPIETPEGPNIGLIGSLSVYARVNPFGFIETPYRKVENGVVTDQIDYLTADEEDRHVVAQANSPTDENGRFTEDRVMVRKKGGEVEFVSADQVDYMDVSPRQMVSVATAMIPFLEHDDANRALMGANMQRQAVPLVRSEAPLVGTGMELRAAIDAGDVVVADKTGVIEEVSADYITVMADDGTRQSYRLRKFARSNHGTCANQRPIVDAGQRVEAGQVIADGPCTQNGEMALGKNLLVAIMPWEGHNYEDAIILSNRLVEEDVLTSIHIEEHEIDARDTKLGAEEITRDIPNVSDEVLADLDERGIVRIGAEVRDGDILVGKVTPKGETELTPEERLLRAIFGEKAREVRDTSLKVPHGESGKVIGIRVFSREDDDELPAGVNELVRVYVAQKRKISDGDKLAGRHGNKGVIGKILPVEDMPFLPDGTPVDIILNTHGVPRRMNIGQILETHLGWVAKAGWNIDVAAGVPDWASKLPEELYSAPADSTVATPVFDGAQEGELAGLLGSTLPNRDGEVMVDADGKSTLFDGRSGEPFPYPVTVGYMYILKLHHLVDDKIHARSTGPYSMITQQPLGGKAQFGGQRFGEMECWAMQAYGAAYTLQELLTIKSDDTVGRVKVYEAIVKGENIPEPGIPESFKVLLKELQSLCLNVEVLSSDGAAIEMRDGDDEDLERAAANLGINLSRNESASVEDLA",
  "experiment": "MIC shift in rpoB knockdown strain ([…]; no shift in inhA knockdown); also reference inhibitor in the screens, IC50 not given",
  "format": "cell-based",
  "data": [
    {"smiles": "CO[C@H]1/C=C/O[C@@]2(C)Oc3c(C)c(O)c4c(O)c(c(/C=N/N5CCN(C)CC5)c(O)c4c3C2=O)NC(=O)/C(C)=C\\C=C\\[C@H](C)[C@H](O)[C@@H](C)[C@@H](O)[C@@H](C)[C@H](OC(C)=O)[C@@H]1C", "note": "[rifampicin]", "values": [
      {"measurement": "MIC shift in rpoB knockdown strain (8 to 0.5 μg/ml; no shift in inhA knockdown);", "value": "modulation in MIC of rifampicin and isoniazid are due to the reduction in the respective target protein levels"}
    ]}
  ]
}
